According to patent publication US8765730B2 (Hoffmann-La Roche Inc, priority 2010, dated 2014):

Target: T1, human GPBAR1 receptor (Homo sapiens, UniProt Q8TDU6)
T1 construct: expressed in transfected cells
T1 sequence (Q8TDU6 1-330): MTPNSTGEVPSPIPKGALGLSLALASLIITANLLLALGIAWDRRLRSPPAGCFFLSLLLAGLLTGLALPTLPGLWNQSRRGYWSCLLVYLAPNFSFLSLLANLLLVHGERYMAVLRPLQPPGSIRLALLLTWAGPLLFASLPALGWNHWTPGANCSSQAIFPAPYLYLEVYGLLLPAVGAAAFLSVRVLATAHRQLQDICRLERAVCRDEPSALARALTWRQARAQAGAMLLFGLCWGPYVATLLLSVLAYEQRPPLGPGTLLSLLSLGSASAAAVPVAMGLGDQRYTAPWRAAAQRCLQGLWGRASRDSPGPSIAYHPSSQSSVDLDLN
Assay: functional cAMP assay in CHO-dhfr(minus) cells expressing human GPBAR1 receptors
Type: cell-based
Details: human EC50, functional cAMP assay, 30 min at 30° C.
Procedure, shortened: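 Agonist cAMP read-out: stable GPBAR1 CHO-dhfr− clone, 30 min compound exposure at 30° C following 30 min IBMX (1 mM) preincubation in Krebs Ringer bicarbonate. Time-resolved energy-transfer detection gives EC50; parental CHO cells serve as counter-screen.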

Row | EC50 | SMILES
1 | 42 nM | Cc1cc(Cl)ccc1C(C/C(=N\O)c1ccc(=O)n(C)c1)c1ccc(Oc2cccc(C(=O)O)c2)cc1 (centres unmarked) [Example 346, 3-{4-[1-(4-Chloro-2-methyl-phenyl)-3-[(E)-hydroxyimino]-3-(1-methyl-6-oxo-1,6-dihydro-pyridin-3-yl)-propyl]-phenoxy}-benzoic acid]
2 | 3 nM | Cc1cc(/C(C[C@@H](c2ccc(-c3ccc(C(=O)O)cc3)cc2)c2ccc(F)cc2C)=N/O)ccn1 (single isomer, unassigned) [Example 398, (−)-4′-[1-(4-Fluoro-2-methyl-phenyl)-3-[(E)-hydroxyimino]-3-(2-methyl-pyridin-4-yl)-propyl]-biphenyl-4-carboxylic acid; compound with triethylamine 1:0.75]
3 | 134 nM | Cc1cc(/C(C[C@H](c2ccc(C3=CCN(C(=O)OC(C)(C)C)CC3)cc2)c2ccccc2C)=N/O)ccn1 [Example 372, (R)-tert-Butyl 4-(4-(3-(hydroxyimino)-3-(2-methylpyridin-4-yl)-1-o-tolylpropyl)phenyl)-5,6-dihydropyridine-1(2H)-carboxylate]
4 | 416 nM | COC(=O)c1ccc(-c2ccc(C(C/C(=N\O)c3ccnc(C)c3)c3ccc(Cl)cc3F)cc2)cc1Cl (centres unmarked) [Example 450, 3-Chloro-4′-[1-(4-chloro-2-fluoro-phenyl)-3-[(E)-hydroxyimino]-3-(2-methyl-pyridin-4-yl)-propyl]-biphenyl-4-carboxylic acid methyl ester]
5 | 511 nM | Cc1ccccc1C(C/C(=N\O)c1ccc(=O)n(C)c1)c1ccc(C(=O)N[C@@H](CO)C(C)C)cc1 (single isomer, unassigned) [Example 306]

The remaining lines, values behind:

Row | SMILES | EC50
6 | Cc1ccccc1C(CC(=NO)c1ccncc1)c1ccc(N2CCOCC2)cc1 (racemic) [Example 41, 3-(4-Morpholin-4-yl-phenyl)-1-pyridin-4-yl-3-o-tolyl-propan-1-one oxime] | 36 nM
7 | Cc1ccccc1C(C/C(=N\O)c1cc(Cl)nc(Cl)c1)c1ccc(Br)cc1 (centres unmarked) [Example 120, (E)-3-(4-Bromo-phenyl)-1-(2,6-dichloro-pyridin-4-yl)-3-o-tolyl-propan-1-one oxime] | 184 nM
8 | Cc1cc(F)ccc1C(C/C(=N\O)c1ccc(=O)n(C)c1)c1ccc(-c2ccc(-c3nnn[nH]3)cc2)cc1 (centres unmarked) [Example 260, 5-{3-(4-Fluoro-2-methyl-phenyl)-1-[(E)-hydroxyimino]-3-[4′-(1H-tetrazol-5-yl)-biphenyl-4-yl]-propyl}-1-methyl-1H-pyridin-2-one] | 40 nM
9 | O/N=C(/CC(c1ccccc1)c1ccccc1)c1cc(Cl)nc(Cl)c1 [Example 73, (Z)-1-(2,6-dichloro-pyridin-4-yl)-3,3-diphenyl-propan-1-one oxime] | 4430 nM
10 | Cc1ccccc1C(CC(=NO)c1ccncc1)c1ccc(-c2ccc(S(C)(=O)=O)cc2)cc1 (racemic) [Example 33, 3-(4′-Methanesulfonyl-biphenyl-4-yl)-1-pyridin-4-yl-3-o-tolyl-propan-1-one oxime] | 47 nM
11 | Cc1cc(/C(C[C@H](c2ccc(-c3ccc(C(=O)O)cc3)cc2)c2ccccc2C)=N/O)cc(C)n1 [Example 294, 4′-{(R)-3-(2,6-Dimethyl-pyridin-4-yl)-3-[(E)-hydroxyimino]-1-o-tolyl-propyl}-biphenyl-4-carboxylic acid] | 21 nM
12 | Cn1cc(/C(CC(CCCC(F)(F)F)c2ccc(Br)cc2)=N/O)ccc1=O (centres unmarked) [Example 175, 5-{3-(4-Bromo-phenyl)-7,7,7-trifluoro-1-[(E)-hydroxyimino]-heptyl}-1-methyl-1H-pyridin-2-one] | 1310 nM
13 | Cn1cc(/C(CC(c2ccc(Br)cc2)C2CCCCC2)=N/O)ccc1=O (centres unmarked) [Example 178, 5-{3-(4-Bromo-phenyl)-3-cyclohexyl-1-[(E)-hydroxyimino]-propyl}-1-methyl-1H-pyridin-2-one] | 42 nM
14 | Cc1ccccc1C(C/C(=N\O)c1cnccn1)c1ccc(Br)cc1 (centres unmarked) [Example 156, (E)-3-(4-Bromo-phenyl)-1-pyrazin-2-yl-3-o-tolyl-propan-1-one oxime] | 6140 nM
